Results: patent US20230130823A1, “PROCESS FOR THE PRODUCTION OF ANTITUMOUR PHARMACEUTICAL COMPOSITIONS USING PUSH-PULL BUTADIENES, COMPOUNDS AND USES THEREOF” (ANHANGUERA EDUCACIONAL PARTICIPAÇÕES S/A, priority 2019, published 2023)
In brackets after ≈: the same amount, converted by molar mass. Several values for one entry are separate records, joined by “and”; a condition that tells them apart may be missing. Equal entries are not always repeated.

Columns and labels:
[1] = system: murine melanoma cells B16F10; experiment: MTT cytotoxicity in B16F10 melanoma cells; assay type: cell-based; conditions: for IC50: Mus musculus, B16-F10, B16F10 melanoma, 24 hours of culture, MTT, read-out: CI50% (the source's name)
Procedure: The tumor line of murine melanoma B16F10 was donated by the Ludwig-Switzerland Institute. Adherent cell suspensions of B16F10 cells were obtained for all experimental procedures by treating culture flasks with trypsin 0.2% for 5 minutes and inactivated with 10% fetal bovine serum. The detached cells were centrifuged twice, resuspended in supplemented RPMI-1640 medium. The count was performed in Malassez chamber, and the cell concentration was adjusted in 5×10^5 cells/ml, in RPMI-1640 culture medium supplemented with 10% fetal bovine serum and 7 ug polymyxin-B (Sigma Chemical Company, St Louis Mo.-USA).
Cell viability was determined by the Trypan Blue exclusion test, being greater than 95% of viable cells. The cells were grown in plates with 96 well plate flat bottoms (Corning), at a concentration of 2×10^5 cells, maintained for 24 hours in a CO2 oven at 37° C. After this period, the plates were centrifuged for 5 minutes, at 2000 rpm at 4° C., the supernatant discarded and added different concentrations of the compounds, diluted in RPMI-1640 culture medium, supplemented and increased by 7 μg of Polymyxin-B (Sigma Chemical Company). After treatment with the various diluted compounds in complete culture medium, the cells were incubated with 0.5 mg/mL of MTT reactive.
The cell viability test was performed to verify the effect of the various compounds on the various concentrations previously established: on the lines of tumor cells B16F10 and normal human fibroblasts. The MTT method consists of a cell viability test that measures the activity of mitochondrial dehydrogenase. MTT is a colorimetric method based on the capacity of living cells to reduce salt 3-(4,5-di-methylazole-2-IL)-2,5-diphenyl tetrazolium bromide in the formazan product (Mosmann, 1983). After the cells plating (concentration of 1×10^4 per well of the culture plate) in RPMI-1640 medium and 10% SFB medium, they were maintained at 37° C. for periods of 24, 48, 72 and 96 hours. Four hours before the set time was completed, MTT 20 μL (Sigma) was added (final concentration of […]). The plates were kept in the oven for the remaining four hours. After the stipulated time, 180 μL of the supernatant were removed from each well and then added 150 μL of dimethyl sulfoxide (Sigma) homogenizing well for the complete dissolution of the salt crystals formed by the mitochondrial metabolism resulting in a staining.
The 96-well plate was read by the spectrophotometer (Spectra MAX-190) using the wavelength of 570 nm. The results were analyzed by absorbance of each well. The percentage of viability was obtained using the following formula: [(Absorbance of treated cells/Absorbance of untreated cells)×100]. The experiments were carried out in quadruplicate.
The samples of the compounds obtained by synthesis chemistry were diluted in DMSO solution at the final concentration of 10%.

Colo205 [2] = experiment: In vitro cytotoxicity, Colo205 colon line; assay type: cell-based; conditions: Homo sapiens, COLO 205; Colo205, colon; read-out: IC50
CRO2B = experiment: In vitro cytotoxicity, CRO2B carcinoid line; assay type: cell-based; conditions: Homo sapiens, carcinoid, read-out: IC50
Colo205 [3] = experiment: Analysis of the cell cycle phases, Colo205; assay type: cell-based
From the text: The compounds of this family were also studied for the distribution of the population of tumor cells in the different phases of the cell cycle: quiescent cells, non-proliferating (G1/G0 phase), which present DNA/RNA synthesis capacity (S phase) and cell division cells (G2/M phase).

HT-29 = experiment: In vitro cytotoxicity, HT-29 colon line; assay type: cell-based; conditions: Homo sapiens; HT-29, colon; read-out: IC50
SW620 = experiment: In vitro cytotoxicity, SW620 colon line; assay type: cell-based; conditions: Homo sapiens, SW-620; SW620, colon; read-out: IC50
PANC1 = experiment: In vitro cytotoxicity, PANC1 pancreas line; assay type: cell-based; conditions: Homo sapiens, PANC-1; PANC1, pancreas; read-out: IC50
CaCo2 = experiment: In vitro cytotoxicity, CaCo2 colon line; assay type: cell-based; conditions: Homo sapiens, Caco-2; CaCo2, colon; read-out: IC50
tumor cells line Colo205 = experiment: Colo205 cell count; assay type: cell-based; conditions: compared to cells treated with culture medium only
Procedure: The compounds were tested for their ability to reduce the number of cells in the tumor, compared to cells treated with culture medium only. In Table 4, the results obtained are shown.

MIAP2 = experiment: In vitro cytotoxicity, MIAP2 pancreas line; assay type: cell-based; conditions: Homo sapiens; MIAP2, pancreas; read-out: IC50
Colo205 [4] = experiment: Determination of apoptotic cells (subG1), Colo205, flow cytometry; assay type: cell-based; conditions: sub-diploid DNA content
From the text: Determination of Apoptotic Cells (subG1)-Colo205
In this experiment, the proportion of apoptotic cells was identified, that is, cells showing DNA content below normal (sub-diploid) in flow cytometry testing.

BxPC3 = experiment: In vitro cytotoxicity, BxPC3 pancreas line; assay type: cell-based; conditions: Homo sapiens, BXPC-3; BxPC3, pancreas; read-out: IC50
[5] = system: lines of human carcinoma tested; experiment: In vitro cytotoxicity against the panel of human carcinoma lines; conditions: tumor cell lines of human carcinoma tested
[6] = system: 4T1 (murine mammary carcinoma); experiment: Cytotoxicity, 4T1 cells; assay type: cell-based; conditions: Mus musculus, read-out: CI50% tumor cells
[7] = system: SCC9 (squamous-cell carcinoma of the oral cavity); experiment: Cytotoxicity, SCC9 cells; assay type: cell-based; conditions: Homo sapiens, SCC-9, read-out: CI50% tumor cells
[8] = system: MCF-7 (human mammary adenocarcinoma); experiment: Cytotoxicity, MCF-7 cells; assay type: cell-based; conditions: MCF7, read-out: CI50% tumor cells
[9] = system: HUVEC (Normal human endothelial cell); experiment: Cytotoxicity, HUVEC normal cells
[10] = system: SCC25 (squamous-cell carcinoma of the oral cavity); experiment: Cytotoxicity, SCC25 cells; assay type: cell-based; conditions: Homo sapiens, SCC-25, read-out: CI50% tumor cells

## N#CC(C#N)=C/C=C(\Cl)c1ccc(OC(=O)c2ccccc2)cc1 [Compound 14, 4-(1-chloro-4,4-dicyano-buta-1,3-dienyl)phenyl Benzoate]
[1]
  IC50: 168 µg/mL (≈ 503 µM)

## O=C(Oc1ccc(/C(Cl)=C/C=C/[N+](=O)[O-])cc1)c1ccccc1 [Compound 16, 4-(1-chloro-4-nitro-buta-1,3-dienyl)phenyl Benzoate]
[1]
  IC50: 34.9 µg/mL and 106 µM

## CC(C)=CCOc1ccc(C(C)=C(C#N)C#N)cc1 [Compound 2]
Colo205 [2]
  IC50: 149 µM
CRO2B
  IC50: 149 µM
Colo205 [3]; G1/G0 phase
  Cell cycle phase (%) G1/G0: 90.0 ± 0.91%
Colo205 [3]; G2/M phase
  Cell cycle phase (%) G2M: 0.8 ± 0.42%
Colo205 [3]; S phase
  Cell cycle phase (%) S: 9.15 ± 0.49%
HT-29
  IC50: 92 µM
SW620
  IC50: 134 µM
PANC1
  IC50: 177 µM
CaCo2
  IC50: 163 µM
Tumor cells line Colo205
  Relative number of cells (% ± standard deviation): 12.7 ± 0.339%
MIAP2
  IC50: 155 µM
Colo205 [4]
  Percentage of cells (apoptotic, subG1): 35.7 ± 1.485%
BxPC3
  IC50: 160 µM
[5]
  cytotoxic activity (in words): exhibited a better cytotoxic activity

## COc1ccc(C(=O)/C(C#N)=C/C=C(\Cl)c2ccc(I)cc2)cc1OC [Compound 21, 5-chloro-2-(3,4-dimethoxy-benzoyl)-5-(4-iodine-phenyl)-penta-2,4-dienonitrile]
[6]
  IC50: 6.44 µM
[7]
  IC50: 0.858 µM
[8]
  IC50: 0.293 µM
[9]
  CI50% Normal cells: 16.4 µM

## COc1cc(/C=C/C(=O)/C=C/C=C(Cl)/C=C/c2ccc(OC)c(OC)c2)ccc1O [Compound 29, (1E,4E,6Z,8E)-7-chloro-1-(4-hydroxy-3-methoxyphenyl)-9-(3,4-dimethoxyphenyl)nona-1,4,6,8-tetraen-3-ona]
[6]
  IC50: 8.27 µM
[7]
  IC50: 9.22 µM
[8]
  IC50: 0.701 µM

## CC(=O)C(=C/C=C(\Cl)c1ccc(C#C[C@@H]2O[C@H](CO)[C@@H](O)[C@H](O)[C@@H]2O)cc1)C(C)=O [Compound 18B, 3-((Z)-3-chloro-3-(4-(2-((2S,3R,4R,5R)-tetrahydro-3,4,5-trihydroxy-6-(Hydroxymethy)-2H-pyran-2-il)ethynyl)phenyl)allilideno)pentano-2,4-dione]
[10]
  IC50: 0.453 µM
[6]
  IC50: 0.431 µM
[7]
  IC50: 0.445 µM
[9]
  CI50% Normal cells: 0.293 µM

## O=C(Oc1ccccc1/C(Cl)=C/C=C/[N+](=O)[O-])c1ccccc1 [Compound 7, 2-(1-chloro-4-nitro-buta-1,3-dienyl)phenyl Benzoate]
[1]; B16F10, compared with compound 6
  activity relative to compound 6: almost ten times more active
[1]
  IC50: 3.27 µg/mL and 9.93 µM
[5]
  cytotoxic activity (in words): little antitumor activity
